The target in data set [1] is T1, casein kinase 1 epsilon (CK1 epsilon) (Homo sapiens, UniProt P49674).
T1 construct: Invitrogen Corporation (named as alternative)
The experiment in a line: Filter-plate assay of ATP-33P, inhibition of casein phosphorylation by CK1 epsilon. Type of data set: biochemical. The note with it: casein substrate, ATP 10 μM, 2 hours at ambient temperature. The procedure:
The capacity of the compounds of the invention to inhibit the phosphorylation of casein by casein kinase 1 epsilon and delta may be evaluated according to the procedure described in US 2005/0131012.
Filter-Plate Assay of ATP-^33P for the Screening of CK1 Epsilon Inhibitors:
The effect of the compounds on inhibition of the phosphorylation of casein by the enzyme casein kinase 1 epsilon (CK1 epsilon) is measured, using a casein assay with filtration of ATP-^33P in vitro.
Casein kinase 1 epsilon (0.58 mg/ml) is obtained via fermentation and purification processes performed according to methods that are well known to those skilled in the art, or may also be obtained from Invitrogen Corporation™ (human CK1 epsilon).
The compounds are tested at five different concentrations so as to generate IC50 values, i.e. the concentration at which a compound is capable of inhibiting the enzymatic activity by 50%, or alternatively the percentage of inhibition at a concentration of 10 micromolar.
“U”-bottomed Falcon plates are prepared by placing 5 μL of solutions of the compounds according to the invention at concentrations of 10, 1, 0.1, 0.01 or 0.001 μM in various wells. The solutions of the compounds according to the invention at these various concentrations are prepared by diluting in a test buffer (50 mM Tris, pH 7.5, […], 2 mM DTT and 1 mM EGTA) a stock solution in DMSO at a concentration of 10 mM. Next, 5 μL of dephosphorylated casein are added to a final concentration of 0.2 μg/μL, 20 μl of CK1 epsilon to a final concentration of 3 ng/μl, and 20 μl of ATP-^33P to a final concentration of 0.02 μCi/μl mixed with cold ATP (10 μM final—approximately 2×10^6 CPM per well). The final total test volume per well is equal to 50 μl.
The “U”-bottomed Falcon® test plate mentioned above is vortexed, and then incubated at ambient temperature for 2 hours. After 2 hours, the reaction is stopped by adding an ice-cold solution of 65 μl of ATP (2 mM) prepared in test buffer.
100 μl of the reaction mixture are then transferred from the “U”-bottomed Falcon® plate into Millipore® MAPH filter plates, preimpregnated with 25 μl of ice-cold 100% TCA. […]
The plates are left to dry overnight at ambient temperature. […] The radiation emitted by each well is then measured for 2 minutes in a Packard® Topcount NXT scintillation counter, in which the values of CPM/well are measured.
The percentage inhibition of the capacity of the enzyme to phosphorylate the substrate (casein) is determined for each concentration of compound tested. These inhibition data expressed as percentages are used to calculate the IC50 value for each compound compared with the controls.
The kinetic studies determined the KM value for ATP as being 21 μM in this test system.

As usually defined, the melting point is the temperature, or range, at which the solid turns liquid. By IC50 is commonly meant the concentration needed to halve the response being measured. A low value points to inhibition by little substance.

T1 sequence (P49674 whole entry): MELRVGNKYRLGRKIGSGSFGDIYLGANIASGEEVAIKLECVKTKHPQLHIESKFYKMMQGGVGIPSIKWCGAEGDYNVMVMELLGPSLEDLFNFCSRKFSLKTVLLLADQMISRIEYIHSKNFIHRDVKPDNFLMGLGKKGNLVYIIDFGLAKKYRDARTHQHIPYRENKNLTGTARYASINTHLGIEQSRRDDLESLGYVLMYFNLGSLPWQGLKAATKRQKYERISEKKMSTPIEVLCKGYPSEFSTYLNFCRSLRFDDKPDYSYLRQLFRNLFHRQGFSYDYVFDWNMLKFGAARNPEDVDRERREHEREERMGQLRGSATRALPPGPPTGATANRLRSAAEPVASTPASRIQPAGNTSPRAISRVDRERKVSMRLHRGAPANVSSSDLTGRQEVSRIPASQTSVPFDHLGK

On to `CN1CCN(c2ccc3nc(-c4ccc(F)cc4)c(-c4ccnnc4)n3n2)CC1` [compound 5, 2-(4-fluorophenyl)-6-(4-methylpiperazin-1-yl)-3-pyridazin-4-yl-imidazo[1,2-b]pyridazine], for which the melting point lay within 232 to 233 °C. Also, the concentration for half-maximal inhibition (IC50) in data set [1] lay within 16 to 33 nM.
